The subject of series [1] is P-gp. The following applies: cited from earlier work.
Another series has as its system CYP2C9. Nature of the series: CYP2C9 mRNA induction in cultured human hepatocytes.
The subject of a further series is CYP1A2. As to the kind of experiment: CYP1A2 mRNA induction in cultured human hepatocytes.
Another series relates to CYP2C8. As to the kind of experiment: CYP2C8 mRNA induction in cultured human hepatocytes.
The subject of the next series is CYP2B6. As to the kind of experiment: CYP2B6 mRNA induction in cultured human hepatocytes.
Series [2] concerns CYP3A4.
Method: (§1) Hepatocytes were cultured according to previously described methods [8]. […] Single-stranded cDNA was prepared from RNA with the RT Master Mix using the AB 7900HT Fast Real Time PCR System thermocycling program. Quantitative RT-PCR was carried out in triplicate. Relative quantification measures the change in mRNA expression in a test sample relative to that in a control sample (e.g., DMSO). This method assumes that the efficiency of the target amplification and the efficiency of the endogenous control amplification are approximately equal.
(§2) The maximal fold induction (Indmax) and half concentration to reach Indmax (IndC50) were determined based on the following equation: Foldinduction=1+Indmax-1×Ct/IndC50+Ct where Ct is the test drug concentration.
Series [3] relates to P-gp. Nature of the series: P-gp mRNA induction in cultured human hepatocytes. The format is cell-based.
The target in another series is P-gp (human MDR1) (Homo sapiens, UniProt P08183). Nature of the series: In vitro P-gp inhibition: 3H-digoxin permeation across control and MDR1-expressing LLC-PK1 cell monolayers. Particulars: for Control cells Papp ratio / Corrected Papp ratio / MDR1-expressing cells Papp ratio: 3H-digoxin 1 µmol/L. How it is done:
MDR1-expressing cells (porcine kidney epithelial LLC-PK1 cells transfected with human MDR1 cDNA) was used. The MDR1-expressing cells were seeded at a density of 4 × 10^4 cells/insert in plates and were incubated in a CO2 incubator (37 °C, CO2: 5%) for 7 to 9 days to prepare cell monolayers. […] After incubation for 4 h at 37 °C, a 70-μL aliquot of the incubation solutions was collected as the analytical sample from the opposite compartment of that spiked with test solutions (receiver compartment). The collected samples were immediately combined with 10 mL of scintillator, and the radioactivity was counted using the LSC. Permeability coefficient (Papp) of ^3H-digoxin was calculated using the following equation: Pappcm/sec=[dQ/dt]/A/C0 where dQ/dt is the transport rate (dpm/sec); A is the membrane area (cm^2); C0 is the initial concentration (dpm/mL). The ratio of permeability coefficient (Papp ratio) was calculated from the basal to apical Papp and apical to basal Papp according to the following equation: Pappratio=BasaltoapicalPapp/ApicaltobasalPapp
Furthermore, the ratios of the Papp ratios in MDR1-expressing cells to the Papp ratios in control cells were calculated as corrected Papp ratio according to the following equation: CorrectedPappratio=PappratiooftheMDR1expressingcells/Pappratioofthecontrolcells
The % of control was calculated from the corrected Papp ratio according to the following equation: \% \,of\,control=CorrectedPappratio\,in\,the\,absence\,or\,presence\,of\,inhibitors/CorrectedPappratio\,in\,the\,absence\,of\,inhibitors×100

In another series the test system is CYP2C19. As to the kind of experiment: CYP2C19 mRNA induction in cultured human hepatocytes.
Series [4] relates to CYP3A4. Particulars: cited from earlier work.
The next series deals with CYP3A. The following applies: multiple oral 600 mg rifampicin; cited from earlier work.
The mark [5] stands for this setting: multiple 160 mg doses of enzalutamide, mean (SD).
Setting [6] is: multiple oral 160 mg enzalutamide.
The mark [7] stands for this setting: 100 µmol/L (enzalutamide, M2: two lots of hepatocyte).
Where [8] appears, read: with/without enzalutamide 160 mg multiple doses, geometric mean ratio (90% CI).

The values that follow come from PMC10460728 (Journal of Pharmacokinetics and Pharmacodynamics, 2023).

Molecules are shown by their SMILES. Like-named read-outs stand apart in the source and are kept apart here.

P-gp (human MDR1), sequence (P08183 whole entry): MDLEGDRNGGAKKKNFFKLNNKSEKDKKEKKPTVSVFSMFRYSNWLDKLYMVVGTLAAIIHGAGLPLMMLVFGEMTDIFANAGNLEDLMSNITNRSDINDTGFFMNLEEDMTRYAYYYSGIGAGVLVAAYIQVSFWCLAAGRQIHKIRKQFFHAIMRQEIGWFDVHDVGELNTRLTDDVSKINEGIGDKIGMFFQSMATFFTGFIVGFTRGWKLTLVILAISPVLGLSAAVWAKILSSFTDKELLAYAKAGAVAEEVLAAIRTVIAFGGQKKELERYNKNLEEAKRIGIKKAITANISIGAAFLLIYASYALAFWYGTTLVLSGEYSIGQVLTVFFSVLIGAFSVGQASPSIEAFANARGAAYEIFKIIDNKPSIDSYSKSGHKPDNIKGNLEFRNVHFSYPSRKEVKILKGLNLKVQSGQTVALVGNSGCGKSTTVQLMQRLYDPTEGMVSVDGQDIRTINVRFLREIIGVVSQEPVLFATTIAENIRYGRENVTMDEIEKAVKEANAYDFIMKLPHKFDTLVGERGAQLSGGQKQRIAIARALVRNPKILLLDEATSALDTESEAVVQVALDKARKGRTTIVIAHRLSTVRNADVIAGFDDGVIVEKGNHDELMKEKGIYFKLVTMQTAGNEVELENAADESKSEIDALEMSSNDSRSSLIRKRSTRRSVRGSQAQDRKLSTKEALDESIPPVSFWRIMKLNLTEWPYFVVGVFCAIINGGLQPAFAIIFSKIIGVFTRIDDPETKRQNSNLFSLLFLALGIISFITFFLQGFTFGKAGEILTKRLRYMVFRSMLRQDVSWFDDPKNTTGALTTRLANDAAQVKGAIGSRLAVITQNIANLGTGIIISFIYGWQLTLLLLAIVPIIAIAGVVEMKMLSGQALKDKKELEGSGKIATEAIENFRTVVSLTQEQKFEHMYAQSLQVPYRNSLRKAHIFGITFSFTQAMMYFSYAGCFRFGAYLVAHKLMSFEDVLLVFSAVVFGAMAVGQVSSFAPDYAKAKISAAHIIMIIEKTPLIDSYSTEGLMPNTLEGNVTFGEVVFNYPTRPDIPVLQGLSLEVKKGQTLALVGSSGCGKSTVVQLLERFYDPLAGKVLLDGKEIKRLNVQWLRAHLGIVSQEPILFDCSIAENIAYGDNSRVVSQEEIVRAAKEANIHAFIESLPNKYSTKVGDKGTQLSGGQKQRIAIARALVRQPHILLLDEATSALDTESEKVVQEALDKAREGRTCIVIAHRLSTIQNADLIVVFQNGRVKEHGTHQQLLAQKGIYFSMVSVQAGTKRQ
Method for CYP1A2: as §1, §2
Method for CYP2C19: as §1, §2
Method for CYP2C8: as §1, §2
Method for CYP2C9: as §1, §2

In the case of `C[C@H]1O[C@@H](O[C@H]2[C@@H](O)C[C@H](O[C@H]3[C@@H](O)C[C@H](O[C@H]4CC[C@@]5(C)[C@H](CC[C@@H]6[C@@H]5C[C@@H](O)[C@]5(C)[C@@H](C7=CC(=O)OC7)CC[C@]65O)C4)O[C@@H]3C)O[C@@H]2C)C[C@H](O)[C@@H]1O` [Digoxin, digoxin], in the series with P-gp [1] (geometric mean ratio (90% CI)), the “AUC ratio, observed” value is recorded as 1.29 (1.21–1.38) and the “Cmax ratio, observed” value is 1.17 (1.06–1.29). In addition, in the series on P-gp [1] (mean (SD)), the “AUC without enzalutamide, observed” value is 22.1 (4.10) ng·h/mL and the “Cmax without enzalutamide, observed” value is 1.45 (0.314) ng/mL. Further, in the series with P-gp [1] (setting [5]), the “AUC with enzalutamide, observed” value is on record as 28.7 (5.79) ng·h/mL and the “Cmax with enzalutamide, observed” value is reported as 1.69 (0.384) ng/mL. Besides, in the series on P-gp [1] (setting [6]), the “Increase in digoxin AUC by enzalutamide” value is 29% and the “Increase in digoxin Cmax by enzalutamide” value is reported as 17%.

In the case of `CC1(C)C(=O)N(c2ccc(C#N)c(C(F)(F)F)c2)C(=S)N1c1ccc(C(=O)O)c(F)c1` [M1], the “Fold increase CYP2C9 mRNA” value with CYP2C9 (1 µmol/L) stood at 0.853 ± 0.361 fold; in the series on CYP2C9 (10 µmol/L) it was 0.888 ± 0.172 fold; in the series with CYP2C9 (setting [7]), 1.52 ± 0.63 fold. Further, the “Fold increase CYP1A2 mRNA” value in the series on CYP1A2 (1 µmol/L) was 0.697 ± 0.260 fold; in the series on CYP1A2 (10 µmol/L), 0.883 ± 0.303 fold; with CYP1A2 (setting [7]), 1.01 ± 0.59 fold. The “Fold increase CYP2C8 mRNA” value in the series with CYP2C8 (1 µmol/L) was 1.11 ± 0.53 fold; with CYP2C8 (10 µmol/L) it was 1.44 ± 0.50 fold; in the series with CYP2C8 (setting [7]), 2.35 ± 1.66 fold. In addition, the “Fold increase CYP2B6 mRNA” value in the series with CYP2B6 (1 µmol/L) was 0.724 ± 0.316 fold; with CYP2B6 (10 µmol/L), 1.03 ± 0.43 fold; in the series on CYP2B6 (setting [7]), 0.848 ± 0.337 fold. The “Fold increase CYP3A4 mRNA” value stood at 0.832 ± 0.417 fold in the series with CYP3A4 [2] (1 µmol/L), 1.17 ± 0.46 fold in the series with CYP3A4 [2] (10 µmol/L) and 1.83 ± 0.98 fold with CYP3A4 [2] (hepatocytes). Besides, the results for the “Fold increase P-gp mRNA” value in the series on P-gp [3] (1 µmol/L), with P-gp [3] (10 µmol/L) and in the series on P-gp [3] (setting [7]) were 0.885 ± 0.553 fold, 1.46 ± 0.79 fold and 1.32 ± 0.25 fold, respectively. Besides, the “Control cells Papp ratio” value is 1.3 at P-gp (human MDR1) (additive 0.3 µmol/L); 1.2 on P-gp (human MDR1) (additive 1 µmol/L); 1.0 at P-gp (human MDR1) (additive 3 µmol/L); 1.0 on P-gp (human MDR1) (additive 10 µmol/L); 1.0 at P-gp (human MDR1) (additive 30 µmol/L); 1.0 on P-gp (human MDR1) (additive 80 µmol/L). Moreover, the “Corrected Papp ratio” value on P-gp (human MDR1) (additive 0.3 µmol/L) stood at 13.2; at P-gp (human MDR1) (additive 1 µmol/L) it was 17.4; at P-gp (human MDR1) (additive 3 µmol/L) it was 19.2; at P-gp (human MDR1) (additive 10 µmol/L), 21.7; on P-gp (human MDR1) (additive 30 µmol/L), 18.3; at P-gp (human MDR1) (additive 80 µmol/L) it was 21.3. The “MDR1-expressing cells Papp ratio” value on P-gp (human MDR1) (additive 0.3 µmol/L) is given as 17.1; at P-gp (human MDR1) (additive 1 µmol/L), 20.9; at P-gp (human MDR1) (additive 3 µmol/L), 19.2; on P-gp (human MDR1) (additive 10 µmol/L) it was 21.7; on P-gp (human MDR1) (additive 30 µmol/L) it was 18.3; on P-gp (human MDR1) (additive 80 µmol/L), 21.3. The “Inhibition of P-gp-mediated 3H-digoxin transport” value at P-gp (human MDR1) (result in words) is listed as “did not inhibit”. For the same compound, the entries for the “Fold increase CYP2C19 mRNA” value in the series with CYP2C19 (1 µmol/L), with CYP2C19 (10 µmol/L) and in the series on CYP2C19 (setting [7]) were 0.855 ± 0.246 fold, 1.06 ± 0.10 fold and 1.55 ± 0.80 fold, respectively.

For the compound `Cc1ncc2n1-c1ccc(Cl)cc1C(c1ccccc1F)=NC2` [Midazolam, midazolam], in the series with CYP3A4 [4] (mean (SD)), the “AUC without enzalutamide, observed” value is 32.0 (12.8) ng·h/mL and the “Cmax without enzalutamide, observed” value is 9.98 (3.17) ng/mL. Further, in the series with CYP3A4 [4] (setting [5]), the “AUC with enzalutamide, observed” value is given as 4.22 (0.784) ng·h/mL and the “Cmax with enzalutamide, observed” value was 2.29 (0.868) ng/mL. Besides, in the series on CYP3A4 [4] (setting [8]), the “AUC ratio, observed” value is 0.14 (0.12–0.17) and the “Cmax ratio, observed” value was 0.23 (0.20–0.27). In addition, in the series with CYP3A, the “Decrease in midazolam AUC by rifampicin” value is “more than 90%” and the “Midazolam AUC ratio with rifampicin” value was “less than 0.1”.

Turning to `CCC1(c2ccccc2)C(=O)NC(=O)NC1=O` [Phenobarbital, phenobarbital, reference compound], the “Fold increase CYP2B6 mRNA” value in the series on CYP2B6 (750 µmol/L) was determined as 6.90 ± 3.66 fold. Moreover, the “Fold increase P-gp mRNA” value in the series with P-gp [3] (750 µmol/L) was found to be 2.61 ± 0.59 fold.
